Test results from patent US9113629B2, “4-amino-6-(4-substituted-phenyl)-picolinates and 6-amino-2-(4-substituted-phenyl)-pyrimidine-4-carboxylates and their use as herbicides” (DOW AGROSCIENCES LLC, priority 2013, dated 2015).
Like-named read-outs stand apart in the source and are kept apart here.

Columns and labels:
[1] = system: Key Broadleaf Weed and Crop Species; assay: Post-emergent Test II herbicidal activity (Table 5); format: in vivo; conditions: post-emergence, 336 h, post-emergent, 14 days after application; for pest or weed control at 70 g/ha: 70 g ai/ha; for pest or weed control at 140 g/ha: 140 g ai/ha
How it was run: (§1)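 Compounds, dissolved in 97:3 acetone/DMSO and diluted into an aqueous carrier containing crop oil concentrate and Triton X-155, are applied over the top of young plants at 187 L/ha. Injury is scored visually at 14 d, 0% meaning no effect and 100% complete kill.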

[2] = system: Key Grass and Sedge Weeds as well as Grass Crops; assay: Post-emergent Test II herbicidal activity (Table 6); format: in vivo; conditions: post-emergence, 336 h; for pest or weed control at 70 g/ha: application rate 70 g ai/ha; for pest or weed control at 140 g/ha: application rate 140 g ai/ha
How it was run: as §1

[3] = ABUTH: velvetleaf (Abutilon theophrasti), read-out: Visual Growth Reduction (%) 14 Days After Application ABUTH
[4] = AMARE: redroot pigweed (Amaranthus retroflexus), read-out: Visual Growth Reduction (%) 14 Days After Application AMARE
[5] = BRSNN: oilseed-rape, canola (Brassica napus), read-out: Visual Growth Reduction (%) 14 Days After Application BRSNN
[6] = CHEAL: lambsquarters (Chenopodium album), read-out: Visual Growth Reduction (%) 14 Days After Application CHEAL
[7] = EPHHL: wild poinsettia (Euphorbia heterophylla), read-out: Visual Growth Reduction (%) 14 Days After Application EPHHL
[8] = HELAN: sunflower (Helianthus annuus), read-out: Visual Growth Reduction (%) 14 Days After Application HELAN
[9] = VIOTR: wild pansy (Viola tricolor), read-out: Visual Growth Reduction (%) 14 Days After Application VIOTR
[10] = CYPES: yellow nutsedge (Cyperus esculentus), read-out: Visual Growth Reduction (%) 14 Days After Application, CYPES
[11] = DIGSA: crabgrass (Digitaria sanguinalis), read-out: Visual Growth Reduction (%) 14 Days After Application, DIGSA
[12] = ECHCG: barnyardgrass (Echinochloa crus-galli), read-out: Visual Growth Reduction (%) 14 Days After Application, ECHCG
[13] = ORYSA: rice (Oryza sativa), read-out: Visual Growth Reduction (%) 14 Days After Application, ORYSA
[14] = SETFA: giant foxtail (Setaria faberi), read-out: Visual Growth Reduction (%) 14 Days After Application, SETFA
[15] = SORVU: grain sorghum (Sorghum vulgare), read-out: Visual Growth Reduction (%) 14 Days After Application, SORVU
[16] = TRZSS (wheat, Triticum aestivum), read-out: Visual Growth Reduction (%) 14 Days After Application, TRZSS
[17] = ZEAMX: maize, corn (Zea mays), read-out: Visual Growth Reduction (%) 14 Days After Application, ZEAMX

Nc1cc(-c2c(F)cc(Br)c(F)c2F)nc(C(=O)O)c1Cl [Compound 162, 4-amino-6-(4-bromo-2,3,6-trifluorophenyl)-3-chloropicolinic acid]
pest or weed control at 70 g/ha [1, 3]: 85 to 94% | pest or weed control at 140 g/ha [1, 3]: 85 to 94% | pest or weed control at 70 g/ha [1, 4]: 95 to 100% | pest or weed control at 140 g/ha [1, 4]: 95 to 100% | pest or weed control at 70 g/ha [1, 5]: 95 to 100% | pest or weed control at 140 g/ha [1, 5]: 95 to 100% | pest or weed control at 70 g/ha [1, 6]: 95 to 100% | pest or weed control at 140 g/ha [1, 6]: 95 to 100% | pest or weed control at 70 g/ha [1, 7]: 95 to 100% | pest or weed control at 140 g/ha [1, 7]: 95 to 100% | pest or weed control at 70 g/ha [1, 8]: 85 to 94% | pest or weed control at 140 g/ha [1, 8]: 85 to 94% | pest or weed control at 70 g/ha [1, 9]: 95 to 100% | pest or weed control at 140 g/ha [1, 9]: 95 to 100% | pest or weed control at 70 g/ha [2, 10]: 95 to 100% | pest or weed control at 140 g/ha [2, 10]: 45 to 59% | pest or weed control at 70 g/ha [2, 11]: 75 to 84% | pest or weed control at 140 g/ha [2, 11]: 75 to 84% | pest or weed control at 70 g/ha [2, 12]: 85 to 94% | pest or weed control at 140 g/ha [2, 12]: 75 to 84% | pest or weed control at 70 g/ha [2, 13]: 45 to 59% | pest or weed control at 140 g/ha [2, 13]: 45 to 59% | pest or weed control at 70 g/ha [2, 14]: 85 to 94% | pest or weed control at 140 g/ha [2, 14]: 75 to 84% | pest or weed control at 70 g/ha [2, 15]: 85 to 94% | pest or weed control at 140 g/ha [2, 15]: 95 to 100% | pest or weed control at 70 g/ha [2, 16]: 45 to 59% | pest or weed control at 140 g/ha [2, 16]: 45 to 59% | pest or weed control at 70 g/ha [2, 17]: 60 to 74% | pest or weed control at 140 g/ha [2, 17]: 75 to 84%
